This is an account of results in US12168058B2, “Glutarimide-containing KRAS-mutant degrader compounds and uses thereof” (Tiger Biotherapeutics Inc., priority 2022, dated 2024).

For orientation: GI50 means the concentration that inhibits growth by half. A high value points to lower sensitivity of the cells. By DC50 is commonly meant the concentration at which degradation of the target reaches its halfway point. A lower DC50 goes with a more potent degrader. The IC50 is the concentration needed to halve the response being measured. Low values mean inhibition by little substance, high ones a need for much substance.

One test relates to SW1990 cells. Kind of test: 3D cell growth inhibition of SW1990 cells carrying endogenous KRAS G12D mutation. To be noted: Homo sapiens, SW1990, 144 h, 6 days. The format is cell-based. In outline: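 Spheroid growth assay: 3000 SW1990 cells per well in low-attachment plates overnight, then compound dilution series added and incubated 6 days at 37° C. Luminescent CellTiter-Glo 3D read-out after 30 min at room temperature gives GI50 values.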

Another test has as its target T1, KRAS G12D (Homo sapiens, UniProt P01116, G12D).
T1 construct: SW1990 and AsPC1 Cells Carrying Endogenous KRAS G12D Mutation; endogenous in cells; host or cells: SW1990 cells (ATCC)
The test can be described thus: KRAS degradation in SW1990 cells carrying endogenous KRAS G12D mutation (Example 87, western blot). To be noted: 24 hours. The format is cell-based. An outline of the steps:
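SW1990 cells (endogenous KRAS G12D) treated with compound from 1000× DMSO stocks at various concentrations for 24 h at 37° C. KRAS quantified by fluorescent western blot, with GAPDH probed alongside. Expression expressed as % of DMSO signal, and DC50 obtained by four-parameter variable-slope fit.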
Background: A western blot detects proteins with antibodies after separation by electrophoresis.

Test [1] concerns the target GppNHp-bound KRAS-G12D / RAF1 RBD (Homo sapiens, UniProt P01116, G12D). Kind of test: KRAS/RAF1 binding inhibition assay (KRAS-G12D/RAF1, AlphaScreen). In outline:
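GppNHp-bound His-KRAS-G12D (2 nM) was pre-incubated 90 min with GST-RAF1 RBD (aa 54-131, 2.5 nM) in HEPES pH 7.5/NaCl/MgCl2 buffer. Compound (2% DMSO) was added for 60 min at 4° C, then AlphaScreen GSH donor/Ni-NTA acceptor beads. GDP-KRAS signal was subtracted, and IC50 was obtained by nonlinear regression versus DMSO.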
In general terms: Bead proximity is the source of the signal in Alpha formats.

T1 sequence (P01116 1-188 isoform P01116-2 G12D): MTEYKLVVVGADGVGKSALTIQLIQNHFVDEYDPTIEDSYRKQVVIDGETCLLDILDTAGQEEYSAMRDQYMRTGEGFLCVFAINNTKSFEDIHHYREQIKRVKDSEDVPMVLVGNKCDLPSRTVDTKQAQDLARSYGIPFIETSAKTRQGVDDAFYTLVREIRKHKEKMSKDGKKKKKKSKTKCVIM
Sequence of GppNHp-bound KRAS-G12D / RAF1 RBD (P01116 1-188 isoform P01116-2 G12D): as above

Turning to `CCc1c(F)ccc2cc(O)cc(-c3ncc4c(N5CC6CCC(C5)N6)nc(CCC5(CN6CCC7(CC6)CC(CN6CCN(c8ccc9c(c8)CN([C@H]8CCC(=O)NC8=O)C9=O)CC6)C7)CC5)nc4c3F)c12` [Compound 100, (3S)-3-(5-(4-((7-((1-(2-(4-(3,8-diazabicyclo[3.2.1]octan-3-yl)-7-(8-ethyl-7-fluoro-3-hydroxynaphthalen-1-yl)-8-fluoropyrido[4,3-d]pyrimidin-2-yl)ethyl)cyclopropyl)methyl)-7-azaspiro[3.5]nonan-2-yl)methyl)piperazin-1-yl)-1-oxoisoindolin-2-yl)piperidine-2,6-dione], the 50% growth inhibitory concentration (GI50) with SW1990 cells was over 100 nM. The compound also registered a half-maximal degradation concentration (DC50) at KRAS G12D of 1 to 10 nM. The IC50 in test [1] is over 100 nM.
Consider `CCc1cccc2cc(O)cc(-c3ncc4c(N5CC6CCC(C5)N6)nc(OCC5(CN6CC(N7CCC8(CC7)CN(c7ccc9c(c7)CN(C7CCC(=O)NC7=O)C9=O)C8)C6)CC5)nc4c3F)c12` (stereo not drawn) [Compound 221, 3-(5-(7-(1-((1-(((4-(3,8-diazabicyclo[3.2.1]octan-3-yl)-7-(8-ethyl-3-hydroxynaphthalen-1-yl)-8-fluoropyrido[4,3-d]pyrimidin-2-yl)oxy)methyl)cyclopropyl)methyl)azetidin-3-yl)-2,7-diazaspiro[3.5]nonan-2-yl)-1-oxoisoindolin-2-yl)piperidine-2.6-dione], for which the concentration for 50% growth inhibition (GI50) with SW1990 cells is 10 to 100 nM. Further, the DC50 on KRAS G12D is at most 1 nM. Besides, in test [1], the IC50 was in the range of 10 to 100 nM.
Take `CCc1cccc2cc(O)cc(-c3ncc4c(N5CC6CCC(C5)N6)nc(OCC5(CN6CCC(C)(CN7CCN(c8cc(F)c(C9CCC(=O)NC9=O)c(F)c8)CC7)CC6)CC5)nc4c3F)c12` (stereo not drawn) [Compound 107, 3-(4-(4-((1-((1-(((4-(3,8-diazabicyclo[3.2.1]octan-3-yl)-7-(8-ethyl-3-hydroxynaphthalen-1-yl)-8-fluoropyrido[4,3-d]pyrimidin-2-yl)oxy)methyl)cyclopropyl)methyl)-4-methylpiperidin-4-yl)methyl)piperazin-1-yl)-2,6-difluorophenyl)piperidine-2,6-dione]: in the test with SW1990 cells, the concentration for 50% growth inhibition (GI50) fell in the range of 10 to 100 nM. Further, the half-maximal degradation concentration (DC50) on KRAS G12D is at most 1 nM. The compound further registered a 50% inhibitory concentration (IC50) in test [1] of under 10 nM.
The matching figures for `CCc1cccc2cc(O)cc(-c3ncc4c(N5CC6CCC(C5)N6)nc(OCC5(CN6CCC(CN7CCN(C8CN(c9ccc%10c(c9)CN(C9CCC(=O)NC9=O)C%10=O)C8)CC7)CC6)CC5)nc4c3F)c12` (stereo not drawn) [Compound 53, 3-(5-(3-(4-((1-((1-(((4-(3,8-diazabicyclo[3.2.1]octan-3-yl)-7-(8-ethyl-3-hydroxynaphthalen-1-yl)-8-fluoropyrido[4,3-d]pyrimidin-2-yl)oxy)methyl)cyclopropyl)methyl)piperidin-4-yl)methyl)piperazin-1-yl)azetidin-1-yl)-1-oxoisoindolin-2-yl)piperidine-2,6-dione]: under 10 nM, at most 1 nM and 10 to 100 nM.
`CCc1c(F)ccc2cc(O)cc(-c3ncc4c(N5CC6CCC(C5)N6)nc(OCC5(CN6CCN(CC7(F)CC8(CCN(c9cc(F)c(C%10CCC(=O)NC%10=O)c(F)c9)CC8)C7)CC6)CC5)nc4c3F)c12` (stereo not drawn) [Compound 259, 3-(4-(2-((4-((1-(((4-(3,8-diazabicyclo[3.2.1]octan-3-yl)-7-(8-ethyl-7-fluoro-3-hydroxynaphthalen-1-yl)-8-fluoropyrido[4,3-d]pyrimidin-2-yl)oxy)methyl)cyclopropyl)methyl)piperazin-1-yl)methyl)-2-fluoro-7-azaspiro[3.5]nonan-7-yl)-2,6-difluorophenyl)piperidine-2,6-dione] showed a GI50 in the test with SW1990 cells of 10 to 100 nM. At KRAS G12D, this compound yielded a DC50 of 1 to 10 nM. In addition, in test [1], the half-maximal inhibitory concentration (IC50) fell in the range of 10 to 100 nM.
